Test results: publication PMC8213153 (PLoS ONE, 2021)
Converted amounts (≈) assume the structure as drawn. Like-named read-outs stand apart in the source and are kept apart here.

Tests used:
SARS-CoV-2 virus = assay: microbe, parasite or virus in culture; assay type: cell-based; conditions: for IC50: Severe acute respiratory syndrome coronavirus 2, Vero
[1] = cited from earlier work
[2] = Cytotoxicity (MTT) assay of single and dual combinatory drugs; assay type: cell-based; conditions: human
Protocol: Each tablet containing drugs was triturated and mixed until homogenous. Approximately 50 mg equivalent mass of drugs were weighed and added to dimethyl sulfoxide in order to solubilize the drugs. The suspension was sonicated in a water bath for 15 minutes before being added to Rosewell Park Memorial Institute (RPMI) media, sonicated again and vortexed to mix it until homogenous. The suspension was then filtered through a polycarbonate membrane with a pore size of 0.45 μm and then a pore size of 0.22 μm under aseptic conditions. The filtrate was mixed with 10% foetal bovine serum and penicillin streptomycin before being vortexed to produce a homogenous mixture to be used as a stock solution. The samples were prepared by diluting the stock solution of each drug with RPMI complete media at an appropriate level of dilution to produce a determined concentration. The dual combinatory drugs mixtures were prepared by mixing appropriate amounts of two drug stock solutions in order to produce a final concentration at the required level. The combinatory drugs were evaluated at both constant and non-constant ratios to evaluate their effects on the cytotoxicity, including; antagonistic, synergistic, or additive. A constant ratio of the mixture was achieved by adding drug solutions at the same ratio, thereby increasing each drug concentration, to produce dose escalation. In contrast, at a non-constant ratio, a fixed determined concentration of drug was added to increased doses of other drug solution in order to produce different levels of drug concentration.
The cytotoxic concentration (CC50) of drugs was performed by means of MTT assay at the Stem Cell Research and Development Center, Universitas Airlangga using human umbilical cord mesenchymal stem cells which had been obtained from human placenta tissue as approved by the Ethical Committee of Universitas Airlangga Hospital (Certificate number 101/KEH/2019 dated January 10, 2019). The cells were prepared as the primary cell culture and used for the cytotoxicity assay because of their sensitivity to chemicals. Cells were seeded into 96-well microplates at a concentration of 1x10^3 cells/well in 100 μL Alpha Minimum Essentials Medium (α-MEM, Gibco, USA) supplemented with 10% foetal bovine serum, 1% penicillin-streptomycin and 1% amphotericin-B. The plates were then incubated in a CO2 incubator at 37°C with 5% CO2 for 24 hours, at which point, the supernatant was replaced with α-MEM containing drugs at each concentration and incubated for a further 48 hours. Approximately 25μL of 3-(4,5-Dimethylthiazol-2-yl)-2,5-diphenyl tetrazolium-bromide (MTT) reagent at a concentration of 5mg/mL was subsequently added to each well and incubated for four hours at 37°C with 5% CO2. Purple formazan crystals were formed and observed under an inverted microscope. Dimethyl sulfoxide was added to each well with the complete solubilisation of formazan crystals subsequently being observed. The greater the number of formazan crystals formed, the lower the toxicity of the samples which were read for optical density of formazan using a multi reader at a measurement wavelength of 595 nm (Promega Glomax, USA). The CC50 value was analyzed by CompuSyn software (the ComboSyn Inc., accessed from www.combosyn.com).
In this study, the cytotoxicity assay was evaluated for single and dual combinatory drugs during a period of 48 hours of drug incubation. This assay was intended to evaluate the toxicity of dual combinatory drugs on normal cells. The combination ratios were calculated taking into consideration the usual therapeutic doses and plasma peak concentrations of the drugs. To determine this cytotoxicity, the drugs were mixed at both constant and non-constant ratios.

IL-6 = IL-6 level of virus-infected Vero cells (ELISA); assay type: cell-based
Protocol: (§1) To enable measurement of IL-6, IL-10 and TNF-α levels, the culture medium of the treated cells was collected in sterile micro-tubes and centrifuged at 3,500 rpm for 20 minutes. The supernatants were carefully collected and diluted with aquadest at a 1:5 volume ratio and vortexed until homogenous. The samples were deposited onto a well-plate, added to ELISA reagents (Bioassay Technology Laboratory, Shanghai, China), and incubated at 37°C for 60 minutes. Reagent substrate solution was then added to the well and incubated for ten minutes at 37°C. The samples were measured for antigen concentration using the optical density (OD) plotted into the standard curves of IL-6, IL-10, and TNF-α.

TNF-α = TNF-α level of virus-infected Vero cells (ELISA); assay type: cell-based
Protocol: as §1

IL-10 = IL-10 level of virus-infected Vero cells (ELISA); assay type: cell-based
Protocol: as §1

CC[C@H]1OC(=O)[C@H](C)[C@@H](O[C@H]2C[C@@](C)(OC)[C@@H](O)[C@H](C)O2)[C@H](C)[C@@H](O[C@@H]2O[C@H](C)C[C@H](N(C)C)[C@H]2O)[C@](C)(OC)C[C@@H](C)C(=O)[C@H](C)[C@@H](O)[C@]1(C)O [CLA, Clarithromycin]
Virus Titer (SARS-CoV-2 virus; 0.5 μg/mL, 24-h): 38.47 viral protein fg/mL
Virus Titer (SARS-CoV-2 virus; 8 μg/mL, 24-h): 38.03 viral protein fg/mL
Virus Titer (SARS-CoV-2 virus; 8 μg/mL, 48-h): 39.09 viral protein fg/mL
Virus Titer (SARS-CoV-2 virus; 8 μg/mL, 72-h): 37.46 viral protein fg/mL
Drug concentration that produced an undetected virus copy number (SARS-CoV-2 virus; MoI 0.04, at 24, 48, and/or 72 hours' incubation): 8 µg/mL
IC50 (SARS-CoV-2 virus; 24h, MoI 0.04): 4.6 µg/mL (≈ 6.15 µM)
IC50 (SARS-CoV-2 virus; 48h, MoI 0.04): 0.6 µg/mL (≈ 0.802 µM)
IC50 (SARS-CoV-2 virus; 72h, MoI 0.04): 0.9 µg/mL (≈ 1.2 µM)
Peak Plasma Concentration ([1]; oral 250 mg Clarithromycin twice a day): 1 µg/mL
Peak Plasma Concentration ([1]; oral 500 mg Clarithromycin twice a day): 2.41 µg/mL
CC50 at 48 h ([2]; LOPIRITO-CLA experiment (Fig 5), 48 hours, CompuSyn, n = 3, read-out: CC50): 2280 µg/mL
viability at 48 h, 0.2 μg/mL ([2]; LOPIRITO-CLARITHROMYCIN series, 0.2 μg/mL, read-out: Cell Viability (%)): 134%
viability at 48 h, 2 μg/mL ([2]; LOPIRITO-CLARITHROMYCIN series, 2 μg/mL, read-out: Cell Viability (%)): 92.6%
viability at 48 h, 10 μg/mL ([2]; LOPIRITO-CLARITHROMYCIN series, 10 μg/mL, read-out: Cell Viability (%)): 79.4%
viability at 48 h, 100 μg/mL ([2]; LOPIRITO-CLARITHROMYCIN series, 100 μg/mL, read-out: Cell Viability (%)): 92.6%
viability at 48 h, 400 μg/mL ([2]; LOPIRITO-CLARITHROMYCIN series, 400 μg/mL, read-out: Cell Viability (%)): 74.3%
IL-6 (IL-6; 0.5 μg/mL, 24-h): 15.61 ± 0.85 ng/L
IL-6 (IL-6; 0.5 μg/mL, 48-h): 28.56 ± 0.62 ng/L
IL-6 (IL-6; 0.5 μg/mL, 72-h): 48.22 ± 0.35 ng/L
IL-6 (IL-6; 4 μg/mL, 24-h): 14.85 ± 0.51 ng/L
IL-6 (IL-6; 4 μg/mL, 48-h): 30.07 ± 0.09 ng/L
IL-6 (IL-6; 4 μg/mL, 72-h): 51.13 ± 0.94 ng/L
IL-6 (IL-6; 8 μg/mL, 24-h): 15.61 ± 0.57 ng/L
IL-6 (IL-6; 8 μg/mL, 48-h): 34.67 ± 0.50 ng/L
IL-6 (IL-6; 8 μg/mL, 72-h): 64.93 ± 2.50 ng/L
IL-6 (IL-6; 1, 4, 8 μg/mL, 24, 48, 72h): ↘↘ (1, 4, 8 μg/mL; 24, 48, 72h)
IL-6 (in words) (IL-6; Table 5): reduced
TNF-α (TNF-α; 0.5 μg/mL, 24-h): 20.39 ± 0.57 pg/mL
TNF-α (TNF-α; 0.5 μg/mL, 48-h): 426.37 ± 1.40 pg/mL
TNF-α (TNF-α; 0.5 μg/mL, 72-h): 612.06 ± 1.54 pg/mL
TNF-α (TNF-α; 4 μg/mL, 24-h): 100.04 ± 1.44 pg/mL
TNF-α (TNF-α; 4 μg/mL, 48-h): 404.07 ± 0.10 pg/mL
TNF-α (TNF-α; 4 μg/mL, 72-h): 609.56 ± 0.14 pg/mL
TNF-α (TNF-α; 8 μg/mL, 24-h): 43.92 ± 1.13 pg/mL
TNF-α (TNF-α; 8 μg/mL, 48-h): 382.62 ± 0.86 pg/mL
TNF-α (TNF-α; 8 μg/mL, 72-h): 609.56 ± 0.14 pg/mL
TNF-α (TNF-α; 24, 48, and 72 hours, cell without concentration): No effects
TNF-α levels (in words) (TNF-α; Table 5): no effects
IL-10 (IL-10; 0.5 μg/mL, 24-h): 36.80 ± 1.13 pg/mL
IL-10 (IL-10; 0.5 μg/mL, 48-h): 105.49 ± 1.32 pg/mL
IL-10 (IL-10; 0.5 μg/mL, 72-h): 507.18 ± 0.00 pg/mL
IL-10 (IL-10; 4 μg/mL, 24-h): 36.80 ± 0.08 pg/mL
IL-10 (IL-10; 4 μg/mL, 48-h): 58.15 ± 1.41 pg/mL
IL-10 (IL-10; 4 μg/mL, 72-h): 498.75 ± 0.00 pg/mL
IL-10 (IL-10; 8 μg/mL, 24-h): 24.75 ± 0.58 pg/mL
IL-10 (IL-10; 8 μg/mL, 48-h): 79.10 ± 0.00 pg/mL
IL-10 (IL-10; 8 μg/mL, 72-h): 445.89 ± 0.07 pg/mL
IL-10 (IL-10; 8 μg/mL, 48h): ↗↗ (8 μg/mL; 48h)
IL-10 levels (in words) (IL-10; Table 5): increased
